Results taken from US12180198B2, “Ribocil C antibiotics effective for Gram-negative pathogens” (THE BOARD OF TRUSTEES OF THE UNIVERSITY OF ILLINOIS, priority 2018, dated 2024).
Converted amounts (≈) assume the structure as drawn. Counter-ions that a name gives are not always drawn. Like-named read-outs stand apart in the source and are kept apart here.

What was measured:
A. baumannii F19521 = assay: MIC, micro-dilution broth method; assay type: cell-based; details: Acinetobacter baumannii
Outline: (§1)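 MIC by CLSI broth micro-dilution in cation-adjusted Mueller-Hinton broth, biological triplicate; values in […].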

A. baumannii KB357 = assay: MIC, micro-dilution broth method; assay type: cell-based; details: Acinetobacter baumannii
Outline: as §1

A. baumannii M13100 = assay: MIC, micro-dilution broth method; assay type: cell-based; details: Acinetobacter baumannii
Outline: as §1

A. baumannii W41979 = assay: MIC, micro-dilution broth method; assay type: cell-based; details: Acinetobacter baumannii
Outline: as §1

A. baumannii WO22 = assay: MIC, micro-dilution broth method; assay type: cell-based; details: Acinetobacter baumannii
Outline: as §1

E. cloacae ATCC 29893 = assay: MIC, micro-dilution broth method; assay type: cell-based; details: Enterobacter cloacae, ATCC29893
Outline: as §1

E. cloacae BAA-2341 = assay: MIC, micro-dilution broth method; assay type: cell-based; details: Enterobacter cloacae, BAA2341
Outline: as §1

E. cloacae BAA-2468 = assay: MIC, micro-dilution broth method; assay type: cell-based; details: Enterobacter cloacae, BAA2468
Outline: as §1

E. cloacae S28901.1 = assay: MIC, micro-dilution broth method; assay type: cell-based; details: Enterobacter cloacae
Outline: as §1

E. coli AR-0346 = assay: MIC, micro-dilution broth method; assay type: cell-based; details: Escherichia coli, AR0346
Outline: as §1

E. coli AR-0349 = assay: MIC, micro-dilution broth method; assay type: cell-based; details: Escherichia coli, AR0349
Outline: as §1

E. coli AR-0493 = assay: MIC, micro-dilution broth method; assay type: cell-based; details: Escherichia coli, AR0493
Outline: as §1

E. coli AR-0495 = assay: MIC, micro-dilution broth method; assay type: cell-based; details: Escherichia coli, AR0495
Outline: as §1

E. coli BAA-2340 = assay: MIC, micro-dilution broth method; assay type: cell-based; details: Escherichia coli, BAA2340
Outline: as §1

E. coli BAA-2469 = assay: MIC, micro-dilution broth method; assay type: cell-based; details: Escherichia coli, BAA2469
Outline: as §1

E. coli BAA-2471 = assay: MIC, micro-dilution broth method; assay type: cell-based; details: Escherichia coli, BAA2471
Outline: as §1

E. coli F20987 = assay: MIC, micro-dilution broth method; assay type: cell-based; details: Escherichia coli
Outline: as §1

E. coli M66623 = assay: MIC, micro-dilution broth method; assay type: cell-based; details: Escherichia coli
Outline: as §1

E. coli MG1655 = assay: MIC, micro-dilution broth method; assay type: cell-based; details: Escherichia coli
Outline: as §1

E. coli ΔtolC JW5503 = assay: MIC, micro-dilution broth method; assay type: cell-based; details: Escherichia coli
Outline: as §1

K. pneumoniae AR-0347 = assay: MIC, micro-dilution broth method; assay type: cell-based; details: Klebsiella pneumoniae, AR0347
Outline: as §1

K. pneumoniae BAA-1705 = assay: MIC, micro-dilution broth method; assay type: cell-based; details: Klebsiella pneumoniae, BAA1705
Outline: as §1

K. pneumoniae BAA-2342 = assay: MIC, micro-dilution broth method; assay type: cell-based; details: Klebsiella pneumoniae, BAA2342
Outline: as §1

K. pneumoniae BAA-2470 = assay: MIC, micro-dilution broth method; assay type: cell-based; details: Klebsiella pneumoniae, BAA2470
Outline: as §1

K. pneumoniae BAA-2473 = assay: MIC, micro-dilution broth method; assay type: cell-based; details: Klebsiella pneumoniae, BAA2473
Outline: as §1

K. pneumoniae M14723 = assay: MIC, micro-dilution broth method; assay type: cell-based; details: Klebsiella pneumoniae
Outline: as §1

K. pneumoniae M67198 = assay: MIC, micro-dilution broth method; assay type: cell-based; details: Klebsiella pneumoniae
Outline: as §1

K. pneumoniae M67297 = assay: MIC, micro-dilution broth method; assay type: cell-based; details: Klebsiella pneumoniae
Outline: as §1

K. pneumoniae S20595 = assay: MIC, micro-dilution broth method; assay type: cell-based; details: Klebsiella pneumoniae
Outline: as §1

K. pneumoniae S47889 = assay: MIC, micro-dilution broth method; assay type: cell-based; details: Klebsiella pneumoniae
Outline: as §1

P. aeruginosa PA01 = assay: MIC, micro-dilution broth method; assay type: cell-based; details: Pseudomonas aeruginosa
Outline: as §1

S. aureus ATCC 29213 = assay: MIC, micro-dilution broth method; assay type: cell-based; details: for increase in MIC in the presence of serum: S. aureus ATCC 29213, +50% human serum vs none
[1] = test system: E. coli harboring FabI A116V; assay: MIC against resistant mutants; assay type: cell-based; details: Escherichia coli
Procedure: (§2) Antimicrobial susceptibility tests. Susceptibility testing was performed in biological triplicate, using the micro-dilution broth method as outlined by the Clinical and Laboratory Standards Institute. Bacteria were cultured with cation-adjusted Muller-Hinton broth (Sigma-Aldrich, Cat #90922) in round-bottom 96-well plates (Corning, Cat #3788). Human serum (pooled gender, 0.2 μm filtered) was purchased from BioIVT (Hicksville, NY).
(§3) Selection of resistant mutants. Resistant mutants were selected via the large inoculum method.

[2] = test system: strains harboring FabI G148S; assay: MIC against resistant mutants; assay type: cell-based, E. coli; details: Escherichia coli, FABIG148S
Procedure: as §2, §3

Mouse MTD = assay: Mouse MTD
Procedure: The protocol was approved by the IACUC at the University of Illinois at Urbana-Champaign (Protocol Number: 16144). In these studies, 10- to 12-week-old female C57BL/6 mice purchased from Charles River were used. The maximum tolerate dose (MTD) of a single compound was determined first. […] For multiple doses, the compound was given by daily IP for 5 consecutive days and mice were monitored for signs of toxicity for 1 month. MTD was the highest dosage with acceptable toxicity (e.g., <20% weight loss). Single dose MTDs were initially determined.

## Cc1c(CN(C)C(=O)/C=C/c2cnc3c(c2)CCC(=O)N3)oc2ccccc12 [Debio-1452, (E)-N-methyl-N-((3-methylbenzofuran-2-yl)methyl)-3-(7-oxo-5,6,7,8-tetrahydro-1,8-naphthyridin-3-yl)acrylamide, reference compound]
A. baumannii F19521; A. baumannii F19521, read-out: MIC
  MIC: > 32 µg/mL
A. baumannii KB357; A. baumannii KB357, read-out: MIC
  MIC: > 32 µg/mL
A. baumannii M13100; A. baumannii M13100, read-out: MIC
  MIC: > 32 µg/mL
A. baumannii W41979; A. baumannii W41979, read-out: MIC
  MIC: > 32 µg/mL
A. baumannii WO22; A. baumannii WO22, read-out: MIC
  MIC: > 32 µg/mL
E. cloacae ATCC 29893; E. cloacae ATCC 29893, read-out: MIC
  MIC: > 32 µg/mL
E. cloacae BAA-2341; E. cloacae BAA-2341, read-out: MIC
  MIC: > 32 µg/mL
E. cloacae BAA-2468; E. cloacae BAA-2468, read-out: MIC
  MIC: > 32 µg/mL
E. cloacae S28901.1; E. cloacae S28901.1, read-out: MIC
  MIC: > 32 µg/mL
E. coli AR-0346; E. coli AR-0346, read-out: MIC
  MIC: > 32 µg/mL
E. coli AR-0349; E. coli AR-0349, read-out: MIC
  MIC: 4 µg/mL (≈ 10.7 µM)
E. coli AR-0493; E. coli AR-0493, read-out: MIC
  MIC: > 32 µg/mL
E. coli AR-0495; E. coli AR-0495, read-out: MIC
  MIC: 8 µg/mL (≈ 21.3 µM)
E. coli BAA-2340; E. coli BAA-2340, read-out: MIC
  MIC: > 32 µg/mL
E. coli BAA-2469; E. coli BAA-2469, read-out: MIC
  MIC: 4 µg/mL (≈ 10.7 µM)
E. coli BAA-2471; E. coli BAA-2471, read-out: MIC
  MIC: 8 µg/mL (≈ 21.3 µM)
E. coli F20987; E. coli F20987, read-out: MIC
  MIC: > 32 µg/mL
E. coli M66623; E. coli M66623, read-out: MIC
  MIC: > 32 µg/mL
E. coli MG1655; E. coli MG1655, read-out: MIC
  MIC: > 32 µg/mL
E. coli ΔtolC JW5503
  MIC: 0.031 µg/mL (≈ 0.0826 µM)
K. pneumoniae AR-0347; K. pneumoniae AR-0347, read-out: MIC
  MIC: > 32 µg/mL
K. pneumoniae BAA-1705; K. pneumoniae BAA-1705, read-out: MIC
  MIC: > 32 µg/mL
K. pneumoniae BAA-2342; K. pneumoniae BAA-2342, read-out: MIC
  MIC: > 32 µg/mL
K. pneumoniae BAA-2470; K. pneumoniae BAA-2470, read-out: MIC
  MIC: 8 µg/mL (≈ 21.3 µM)
K. pneumoniae BAA-2473; K. pneumoniae BAA-2473, read-out: MIC
  MIC: > 32 µg/mL
K. pneumoniae M14723; K. pneumoniae M14723, read-out: MIC
  MIC: > 32 µg/mL
K. pneumoniae M67198; K. pneumoniae M67198, read-out: MIC
  MIC: > 32 µg/mL
K. pneumoniae M67297; K. pneumoniae M67297, read-out: MIC
  MIC: > 32 µg/mL
K. pneumoniae S20595; K. pneumoniae S20595, read-out: MIC
  MIC: > 32 µg/mL
K. pneumoniae S47889; K. pneumoniae S47889, read-out: MIC
  MIC: > 32 µg/mL
P. aeruginosa PA01; P. aeruginosa PA01, read-out: MIC
  MIC: > 32 µg/mL
S. aureus ATCC 29213; S. aureus ATCC 29213
  MIC: 0.008 to 0.016 µg/mL
S. aureus ATCC 29213
  increase in MIC in the presence of serum: 8 fold
S. aureus ATCC 29213; Staphylococcus aureus, ATCC29213, S. aureus ATCC 29213 (+50% Human serum), read-out: MIC
  MIC: 0.125 µg/mL (≈ 0.333 µM)
S. aureus ATCC 29213; Staphylococcus aureus, ATCC29213, S. aureus ATCC 29213, read-out: MIC
  MIC: 0.008 µg/mL (≈ 0.0213 µM)

## Cc1c(CN(C)C(=O)/C=C/c2cnc3c(c2)CC(N)C(=O)N3)oc2ccccc12 (centres unmarked) [Debio-1452-NH3, (E)-3-(6-amino-7-oxo-5,6,7,8-tetrahydro-1,8-naphthyridin-3-yl)-N-methyl-N-((3-methylbenzofuran-2-yl)methyl)acrylamide hydrochloride]
A. baumannii F19521; F19521
  MIC: 4 µg/mL
A. baumannii KB357; KB357
  MIC: 64 µg/mL
A. baumannii M13100; M13100
  MIC: 16 µg/mL
A. baumannii W41979; W41979
  MIC: 4 µg/mL
A. baumannii WO22; WO22
  MIC: 64 µg/mL
E. cloacae ATCC 29893
  MIC: 8 µg/mL
E. cloacae BAA-2341
  MIC: 8 µg/mL
E. cloacae BAA-2468
  MIC: 8 µg/mL
E. cloacae S28901.1; S28901.1
  MIC: 16 µg/mL
E. coli AR-0346
  MIC: 8 µg/mL
E. coli AR-0349
  MIC: 2 µg/mL
E. coli AR-0493
  MIC: 4 µg/mL
E. coli AR-0495
  MIC: 4 µg/mL
E. coli BAA-2340
  MIC: 4 µg/mL
E. coli BAA-2469
  MIC: 2 µg/mL
E. coli BAA-2471
  MIC: 4 µg/mL
E. coli F20987; F20987
  MIC: 4 µg/mL
E. coli M66623; M66623
  MIC: 8 µg/mL
E. coli MG1655; MG1655
  MIC: 4 µg/mL
E. coli ΔtolC JW5503
  MIC: 0.062 µg/mL
K. pneumoniae AR-0347
  MIC: 16 µg/mL
K. pneumoniae BAA-1705
  MIC: 8 µg/mL
K. pneumoniae BAA-2342
  MIC: 16 µg/mL
K. pneumoniae BAA-2470
  MIC: 4 µg/mL
K. pneumoniae BAA-2473
  MIC: 16 µg/mL
K. pneumoniae M14723; M14723
  MIC: 16 µg/mL
K. pneumoniae M67198; M67198
  MIC: 32 µg/mL
K. pneumoniae M67297; M67297
  MIC: 32 µg/mL
K. pneumoniae S20595; S20595
  MIC: 16 µg/mL
K. pneumoniae S47889; S47889
  MIC: 8 µg/mL
P. aeruginosa PA01; PA01
  MIC: > 64 µg/mL
S. aureus ATCC 29213
  increase in MIC in the presence of serum: 2 fold
S. aureus ATCC 29213; Staphylococcus aureus, ATCC29213, S. aureus ATCC 29213
  MIC: 0.03 µg/mL
S. aureus ATCC 29213; Staphylococcus aureus, ATCC29213, S. aureus ATCC 29213 (+50% Human serum)
  MIC: 0.062 µg/mL
[1]
  MIC: 64 µg/mL
[2]
  MIC: > 64 µg/mL
Mouse MTD; female, C57BL/6, mouse, in vivo, ip, 5 days
  dose well tolerated in mice: 50 mg/kg
Mouse MTD; mice, IP injection, single dose, monitored 2 weeks
  single dose well tolerated: 50 mg/kg
Mouse MTD; mice, IP, daily for 5 consecutive days
  daily dosing well tolerated: 50 mg/kg
